{"source": "paper PMC6983213", "about": "“Combining Chalcones with Donepezil to Inhibit Both Cholinesterases and Aβ Fibril Assembly” (Molecules, 2019)", "key": {"[1]": {"molecular_target": "T1, preformed bioAβ42 oligomers (Homo sapiens, UniProt P05067)", "T1 construct": "N-biotinyl Aβ(1–42) (bioAβ42) was purchased from Anaspec; purchased Anaspec (Fremont, CA, USA) AS-23523-05", "T1 sequence (P05067 672-713)": "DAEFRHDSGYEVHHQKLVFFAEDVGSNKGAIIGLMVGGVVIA", "assay": "bioAβ42 oligomer dissociation assay (NeutrAvidin ELISA)", "assay_type": "biochemical", "conditions": "0.01 to 50 μM; ~18 h; alone or in 1:1 / 1:1:1 mixtures", "experimental": "Dissociation of preformed oligomers of bioAβ42 was measured by pretreating biotinylated oligomers with solvent controls or compounds for a period of time, capturing them with NeutrAvidin^TM on ELISA plates, and detecting the remaining bound oligomers with SA-HRP [77] as described above. Below, please find the details of the two steps (Steps 1 and 2) used for the oligomer dissociation assay.\nStep 1: Preformed bioAβ42 oligomers (sufficient for 400 wells). In total, 1 μg of bioAβ42 peptide (1 mg/mL dissolved in HFIP) was pipetted into 20 μL of HFIP in a polypropylene microfuge tube, and dried to a thin film under a gentle air or N2 stream. The film was dissolved in 250 μL of DMSO and vortexed. […] After incubation at rt for 1 h with intermittent vortexing, 0.375 mL of 100 mM Tween 20 (10% v/v) in distilled H2O was added to make the final Tween 20 concentration 0.3% v/v. The preformed oligomers were mixed by inversion and aliquoted for storage at −75 °C. Note: Multiple freeze-thaw cycles should be avoided.\nStep 2: Oligomer dissociation assay. […] Then, 25 μL of the preformed bio42 oligomers adjusted to 0.6% v/v Tween 20 was pipetted into each well of a polypropylene 96-well plate. […] The plates were sealed and shaken at 150 rpm overnight at rt. After 18 h of incubation, the plates were centrifuged at 1000× g for 10 min and a 100-μL aliquot was transferred from each well into a well of an NA-coated ELISA plate that had been blocked with Tween 20. The oligomer content of that aliquot was measured as described for the bioAβ42 oligomer assembly assay.\n(§1) The effects of various chalcones, donepezil, donepezil analogue, and 1,3-chalcone-donepezil hybrids were tested for their ability to inhibit the bioAβ42 oligomer assembly and dissociation either alone or in combination with each other. The experiments were performed as described in the biotinyl-Aβ(1–42) (bioAβ42) oligomer assembly and dissociation assays section."}, "[2]": {"molecular_target": "T2, N-biotinyl-Aβ(1–42) (bioAβ42) oligomer assembly (Homo sapiens, UniProt P05067)", "T2 construct": "N-biotinyl Aβ(1–42) (bioAβ42) was purchased from Anaspec; purchased Anaspec (Fremont, CA, USA) AS-23523-05", "T2 sequence (P05067 672-713)": "as above", "assay": "biochemical", "conditions": "for bioAβ42 oligomer assembly inhibition (in words): 1.56 to 50 μM, alone or in 1:1 / 1:1:1 mixtures", "experimental": "We first examined the effect of the synthesized 1,3- and 1,4-chalcone-donepezil hybrids 15a–15f and 16a–16f on the assembly of N-biotinyl-Aβ(1–42) (bioAβ42) monomers into oligomers. We quantified the assembly of bioAβ42 into soluble oligomers by using an ELISA assay in which the soluble oligomers were captured on NeutrAvidin^TM-coated ELISA plates and detected with streptavidin-horseradish peroxidase and colorimetric readout (Figure 3).\nThe plates were then stored in their blocked form at 4 °C prior to use for the oligomer assembly and dissociation assays.\nThe assembly of bioAβ42 into soluble oligomers was quantified with an ELISA assay in which the soluble oligomers were captured with the NeutrAvidin^TM coating the ELISA plates. The bound oligomers were detected with streptavidin-horseradish peroxidase (SA-HRP). […] Below, please find the details of the three steps (Steps 1–3) used for the oligomer assembly assay.\nStep 1: Preparation of monomeric bioAβ42. For a low background, it was essential to rigorously pretreat the bioAβ42 peptide to convert (disaggregate) the multimeric species that form upon storage in the solid state, or even frozen in 1,1,1,3,3,3-hexafluoroisopropanol (HFIP) to monomers. The required amount of stock bioAβ42 peptide (0.5 mg dissolved at 1 mg/mL in HFIP) was pipetted into a polypropylene microfuge tube, dried to a thin film under a gentle air or N2 stream, and then disaggregated for 10 min at rt in neat trifluoroacetic acid (TFA). After removal of the TFA by drying with an air or N2 stream, DMSO was added to produce a 2.3 μg/mL (50×) stock solution.\nStep 2: Assembly of bioAβ42 oligomers. 2 μL of disaggregated monomeric 50× bioAβ42 peptide in DMSO (prepared in Step 1) was pipetted into the bottom of each well of a polypropylene 96-well plate. […] The 96-well plate was sealed and incubated at rt for 30 min without shaking. The bioAβ42 oligomer assembly was stopped by adding 50 μL of 0.3% Tween 20 v/v in distilled H2O.\nStep 3: Measurement of bioAβ42 oligomers. […] The 96-well plate was then sealed and incubated for 2 h while shaking at 150 rpm at rt. […] The plate was sealed and incubated for 1 h while shaking at 150 rpm at rt. The plate was washed as previously described, and 100 μL/well of HRP substrate (i.e., 1 mM:0.07 mM/tetramethylbenzidine:H2O2) in 0.2 M citrate buffer, pH 4.0 was added. The plate was incubated at rt for 5 to 10 min and the reaction was stopped by the addition of 100 μL/well of 1% v/v H2SO4. The absorbance of each well was read at 450 nm with a BioTek HT Synergy plate reader.\nas §1"}}}
{"smiles": "CN(C)c1ccc(/C=C/C(=O)c2cccc(OCCO)c2)cc1", "note": "[compound 17, (E)-3-(4-(Dimethylamino)Phenyl)-1-(3-(2-Hydroxyethoxy)Phenyl)Prop-2-En-1-One]", "values": [{"measurement": "dissociation of preformed bioAβ42 oligomers (in words)", "setting": "[1]", "result": "did not dissociate the preformed oligomers"}, {"measurement": "bioAβ42 oligomer assembly inhibition (in words)", "setting": "[2]", "result": "did not inhibit bioAβ42 assembly"}]}
{"smiles": "CN(C)c1ccc(/C=C/C(=O)c2cccc(O)c2)cc1", "note": "[compound 3, (E)-3-(4-(Dimethylamino)Phenyl)-1-(3-Hydroxyphenyl)Prop-2-En-1-One]", "values": [{"measurement": "dissociation of preformed bioAβ42 oligomers (in words)", "setting": "[1]", "result": "did not dissociate the preformed oligomers"}, {"measurement": "bioAβ42 oligomer assembly inhibition (in words)", "setting": "[2]", "result": "did not inhibit bioAβ42 assembly"}, {"measurement": "EC50", "setting": "[2]; concentration range 50 to 1.56 μM, duplicate, n = 3 independent experiments, ± SDEV, read-out: EC50 against bioAβ42 oligomer assembly", "result": "> 50", "unit": "µM"}]}
{"smiles": "COc1cc2c(cc1OCCO)C(=O)C(CC1CCN(Cc3ccccc3)CC1)C2", "note": "(stereo not shown) [compound 20, 2-((1-Benzylpiperidin-4-Yl)Methyl)-6-(2-Hydroxyethoxy)-5-Methoxy-2,3-Dihydro-1H-Inden-1-One]", "values": [{"measurement": "dissociation of preformed bioAβ42 oligomers (in words)", "setting": "[1]", "result": "did not dissociate the preformed oligomers"}, {"measurement": "bioAβ42 oligomer assembly inhibition (in words)", "setting": "[2]", "result": "did not inhibit bioAβ42 assembly"}]}
